We go through 3 molecules from patent publication US9359313B2, “Use of metformin in combination with a glucokinase activator and compositions comprising metformin and a glucokinase activator” (vTv Therapeutics LLC, priority 2010, dated 2016).

For series [1], the system named is diabetic ob/ob mice. The series is described as follows: Treatment of diabetic ob/ob mice with UD1 and metformin: post-prandial glucose. It is filed as in vivo. The note with it: 75 mg/kg UD1, 100 mg/kg Met; for mean post-prandial glucose level / mean glucose level: n=10; for mean glucose level: time 0 hours (baseline). How it is done:
Before treatment, the mice were assigned to four groups based on baseline glucose levels and body weight (n=10 for each group). Each group of mice was dosed with one of the following: (1) a control substance; (2) 75 mg/kg UD1; (3) 100 mg/kg metformin (Met); or (4) 75 mg/kg UD1 and 100 mg/kg metformin (Met). Post-prandial glucose was measured at time points of 1, 3, 5, 7, and 9 hours following dosing.

Series [2] is described as follows: Pharmacokinetic evaluation of three oral UD1 dosage forms in male beagle dogs. It is filed as in vivo. The note with it: 100 mg of UD1, fasted, mean of 3 dogs. How it is done: For all nine dogs, 100 mg of UD1 was administered orally. Each dog was dosed in a fasted state, where food was provided 4 hours following dosing. Blood samples were taken for pharmacokinetic (PK) evaluation at the following time intervals following dosing: 0.5, 1.0, 2.0, 4.0, 6.0, 8.0, 12.0, and 24.0 hours.

With `CN(C)C(=N)NC(=N)N` [Met, N,N-dimethylimidodicarbonimidic diamide, reference compound], the “change in glucose levels relative to control, AUC 0-9 hrs” value in series [1] was -39 mg·h/dL. The “mean post-prandial glucose level” value came out at 357 mg/dL in series [1] (1 hour following dosing); 334 mg/dL in series [1] (3 hours following dosing); 459 mg/dL in series [1] (5 hours following dosing); 501 mg/dL in series [1] (7 hours following dosing); 484 mg/dL in series [1] (9 hours following dosing). Moreover, the mean glucose level in series [1] is on record as 389 mg/dL.
With `CCCO[C@H]1CC[C@H](N(C(=O)Nc2ncc(SCC(=O)O)s2)C2CCCCC2)CC1.CN(C)C(=N)NC(=N)N` [Metformin Salt, 1,1-dimethylbiguanide salt of {2-[3-cyclohexyl-3-(trans-4-propoxy-cyclohexyl)-ureido]-thiazol-5-ylsulfanyl}-acetic acid], in series [2], the “AUC0-∞” value was 15802 ng·h/mL and the maximum concentration (Cmax) (usually the peak of the concentration-time curve) came out at 6985 ng/mL.
`CCCO[C@H]1CC[C@H](N(C(=O)Nc2ncc(SCC(=O)O)s2)C2CCCCC2)CC1` [UD1, {2-[3-cyclohexyl-3-(trans-4-propoxy-cyclohexyl)-ureido]-thiazol-5-ylsulfanyl}-acetic acid]: in series [1], the “change in glucose levels relative to control, AUC 0-9 hrs” value is -748 mg·h/dL. Besides, the “mean post-prandial glucose level” value in series [1] (1 hour following dosing) turned out to be 321 mg/dL; in series [1] (3 hours following dosing), 254 mg/dL; in series [1] (5 hours following dosing), 376 mg/dL; in series [1] (7 hours following dosing), 382 mg/dL; in series [1] (9 hours following dosing) it was 394 mg/dL. Moreover, in series [1], the mean glucose level worked out at 391 mg/dL.
